Earlier results in EP0408384A1, “N,N'-dicarboxymethyl, N,N'-dicarbamoylmethyl diaminoalkane derivatives and their use in pharmaceutical compositions” (BRITISH TECHNOLOGY GROUP LIMITED, priority 1989, dated 1991).

System: daunorubicin toxicity
Conditions: acute daunorubicin toxicity; literature report

O=C1CN(CCN2CC(=O)N(CN3CCOCC3)C(=O)C2)CC(=O)N1CN1CCOCC1 [bimolane]
protection against the lethal effects of daunorubicin: give protection

CC(CN1CC(=O)NC(=O)C1)N1CC(=O)NC(=O)C1 (centres unmarked) [compound having R = CH₃ and R′ = R˝ = H]
protection against the lethal effects of daunorubicin: give protection
